Patent publication US12599685B2, “Tumor stroma imaging agent and preparation method thereof” (SHANGHAI UNIVERSITY OF MEDICINE & HEALTH SCIENCES, priority 2020, dated 2026)

Key:
HT-1080-FAP cell line = test: Cell binding experiment of (S)-[18F]-AlF-NOTA-Bn-FAPI-4; assay type: cell-based, human; details: 1 h incubation
Protocol: (S)—[^18F]—AlF-NOTA-Bn-FAPI-4 was adopted as an experimental group, AlF-FAPI-75+(S)—[^18F]—AlF-NOTA-Bn-FAPI-4 was adopted as a blockage group, and free ^18F^− was adopted as a control group.
A human fibrosarcoma cell HT-1080-FAP (HT-1080-FAP cell line) transfected by an FAP gene was activated to obtain an HT-1080-FAP cell suspension.
(§1) The experimental group: 2 mL of the HT-1080-FAP cell suspension was taken and washed three times with frozen PBS. A complete medium including the imaging agent (S)—[^18F]—AlF-NOTA-Bn-FAPI-4 (2.96 MBq, 80 μCi) was added, and the resulting mixture was incubated for 1 h. The cells were washed three times with frozen PBS, and 0.5 mL of NaOH-sodium dodecyl sulfate (SDS) (1M NaOH, 1% SDS) was added for lysis. The resulting cell lysate was finally collected, placed in a marked γ-counting tube, and subjected to γ-counting.
as §1, with “blockage” for “experimental”, “PBS. A complete medium including the blocker AlF-FAPI-75 was added, and the resulting mixture was incubated for 0.5 h.” for “PBS.”, “NaOH-SDS (1 M” for “NaOH-sodium dodecyl sulfate (SDS) (1M”
The control group: 2 mL of the HT-1080-FAP cell suspension was taken and washed three times with frozen PBS. A complete medium including the free ^18F^− (2.96 MBq, 80 μCi) was added, and the resulting mixture was incubated for 1 h. The cells were washed three times with frozen PBS, and 0.5 mL of NaOH-SDS (1 M NaOH, 1% SDS) was added for lysis. The resulting cell lysate was finally collected, placed in a marked γ-counting tube, and subjected to γ-counting. The final volumes of the groups were the same.

tumor-bearing mice = test: Biodistribution in tumor-bearing mice; assay type: in vivo
Protocol: Six mice were divided into an experimental group and a blockage group with 3 mice in each group. Mice in the experimental group each were injected with (S)—[^18F]—AlF-NOTA-Bn-FAPI-4 (3.7 MBq, 100 μCi) through a tail vein within 1 min, and 60 min later, the mice each were sacrificed by cutting a carotid artery for bloodletting. Mice in the blockage group each were injected with 100 μg of the blocker AlF-FAPI-75 (1,000 μg/mL) through a tail vein and injected with (S)—[^18F]—AlF-NOTA-Bn-FAPI-4 (3.7 MBq, 100 μCi) through a tail vein 30 min later, and 60 min later, the mice each were sacrificed by cutting a carotid artery for bloodletting. The heart, liver, lung, kidney, spleen, brain, and the like were collected, weighed, and tested for radioactivity. Finally, an (S)—[^18F]—AlF-NOTA-Bn-FAPI-4 radioactivity uptake rate (a percentage of uptake radioactivity per gram of tissue in the injected radioactivity, ID/g) in each of blood and various organs and a radioactivity ratio of a target organ to a non-target organ (T/NT) were calculated at different time points.

[1] = blockage group: 100 μg AlF-FAPI-75 i.v. 30 min before tracer, 1 h after injection
[2] = experimental group, 1 h after tail vein injection, 3.7 MBq
[3] = tumor-bearing mice, 1 h after injection

## (S)—[^18F]—AlF-NOTA-Bn-FAPI-4
HT-1080-FAP cell line; t=6.713, P<0.05
  absorption of tumor cells, experimental group relative to blockage group: 3 times
HT-1080-FAP cell line; t=8.934, P<0.01
  absorption of tumor cells, experimental group relative to control group (free 18F-): 33.31 times
HT-1080-FAP cell line; HT-1080-FAP cells, 2.96 MBq (80 μCi), no blocker
  Radioactivity count value: 5999.98 ± 864.12 γ count value/min
HT-1080-FAP cell line; blockage group: blocker AlF-FAPI-75 incubated 0.5 h, then imaging agent 2.96 MBq
  Radioactivity count value: 2000.01 ± 113.34 γ count value/min
tumor-bearing mice; [1]
  Distribution, Blood: 0.13±0.10 % ID/g
  Distribution, Bone: 0.06 ± 0.01 % ID/g
  Distribution, Brain: 0.03 ± 0.01 % ID/g
  Distribution, Heart: 0.08 ± 0.05 % ID/g
  Distribution, Intestine: 0.16 ± 0.02 % ID/g
  Distribution, Kidney: 0.84±0.21 % ID/g
  Distribution, Liver: 0.08 ± 0.04 % ID/g
  Distribution, Lung: 0.28 ± 0.19 % ID/g
  Distribution, Muscle: 0.09 ± 0.03 % ID/g
  Distribution, Spleen: 0.16 ± 0.14 % ID/g
  Distribution, Tumor: 0.22±0.05 % ID/g
tumor-bearing mice; [2]
  Distribution, Blood: 0.10±0.04 % ID/g
  Distribution, Bone: 0.15 ± 0.03 % ID/g
  Distribution, Brain: 0.02 ± 0.01 % ID/g
  Distribution, Heart: 0.09 + 0.09 % ID/g
  Distribution, Intestine: 0.19 ± 0.06 % ID/g
  Distribution, Kidney: 0.94±0.20 % ID/g
  Distribution, Liver: 0.07 ± 0.05 % ID/g
  Distribution, Lung: 0.16 ± 0.08 % ID/g
  Distribution, Muscle: 0.16 ± 0.05 % ID/g
  Distribution, Spleen: 0.10 ± 0.01 % ID/g
  Distribution, Tumor: 1.12±0.06 % ID/g
tumor-bearing mice; [3]
  clearance in the blood: quickly cleared in the blood
  route of excretion: mainly excreted by the kidney
